According to US11076595B2, “1-(n,n-disubstituted carbamoyl) 4-(substituted sulfonyl)triazolin-5-one derivative, 4-(n,n-disubstituted carbamoyl) 1-(substituted sulfonyl)triazolin-5-one derivative, and herbicide containing said derivative as active ingredient” (HOKKO CHEMICAL INDUSTRY CO., LTD., priority 2017, dated 2021):

Tests used:
Type in all cases: in vivo
crabgrass [1] = test: Test Example 13: herbicidal effect test by soil treatment in upland field; conditions: 120 g/10a, 14 days after treatment
How it was run: (§1)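 Pre-emergence soil spray, 1 d post-sowing; emulsifiable concentrate in water, 100 L/10 are, 120 g a.i./10 are. Pots 36 cm^2, alluvial soil, 20 seeds/species in top 1 cm. n=2; read 14 d; suppression % = (1 − treated/untreated mean dry weight) × 100.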

Chenopodium album [2] = test: as above; conditions: 120 g/10a, 14 days after treatment
How it was run: as §1

Amaranthus viridis [3] = test: as above; conditions: 120 g/10a, 14 days after treatment
How it was run: as §1

Echinochloa crus-galli [4] = test: as above; conditions: 120 g/10a, 14 days after treatment
How it was run: as §1

Amaranthus viridis [5] = test: Test Example 14: herbicidal effect test by foliage treatment in upland field; conditions: 7 days after sowing, 120 g/10a, 14 days after treatment
How it was run: (§2)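 Post-sowing spray at day 7, 120 g a.i./10 are in 100 L water/10 are; alluvial soil pots, duplicate plots; endpoint day 14, % suppression from dry weight relative to untreated.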

Echinochloa crus-galli [6] = test: as above; conditions: 7 days after sowing, 120 g/10a, 14 days after treatment
How it was run: as §2

crabgrass [7] = test: as above; conditions: 7 days after sowing, 120 g/10a, 14 days after treatment
How it was run: as §2

Chenopodium album [8] = test: as above; conditions: 7 days after sowing, 120 g/10a, 14 days after treatment
How it was run: as §2

Scirpus juncoides [9] = test: Test Example 11: herbicidal effect test by soil treatment in paddy field; conditions: 120 g/10a active ingredient, 14 days after treatment
How it was run: (§3)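 Pre-emergence paddy test, 120 g a.i./10 are, emulsifiable concentrate diluted in water and added dropwise to ~3 cm flood water right after sowing (30 seeds/species, 0–1 cm depth, fertilized puddled soil). Greenhouse; 2 replicates; dry-weight suppression (%) vs untreated, day 14.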

Echinochloa crus-galli [10] = test: as above; conditions: 120 g/10a active ingredient, 14 days after treatment
How it was run: as §3

Monochoria vaginalis [11] = test: as above; conditions: 120 g/10a active ingredient, 14 days after treatment
How it was run: as §3

Lindernia pyxidaria [12] = test: as above; conditions: 120 g/10a active ingredient, 14 days after treatment
How it was run: as §3

Scirpus juncoides [13] = test: Test Example 12: herbicidal effect test by treatment during growing period in paddy field; conditions: 120 g/10a; treatment seven days after sowing in flooded paddy pot; assessed 14 days after treatment
How it was run: (§4)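 Paddy soil + NPK 17:17:17, puddled; 30 seeds/species sown 0–1 cm; flooded ~3 cm, greenhouse. Day 7 post-sowing: EC diluted in water, applied dropwise into water, 120 g a.i./10 are. Day 14 post-treatment: dry weight vs untreated → % suppression; n=2.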

Echinochloa crus-galli [14] = test: as above; conditions: 120 g/10a; treatment seven days after sowing in flooded paddy pot; assessed 14 days after treatment
How it was run: as §4

Monochoria vaginalis [15] = test: as above; conditions: 120 g/10a; treatment seven days after sowing in flooded paddy pot; assessed 14 days after treatment
How it was run: as §4

Lindernia pyxidaria [16] = test: as above; conditions: 120 g/10a; treatment seven days after sowing in flooded paddy pot; assessed 14 days after treatment
How it was run: as §4

SMILES	herbicidal effect, Crabgrass (crabgrass [1])	herbicidal effect, Chenopodium album (Chenopodium album [2])	herbicidal effect, Amaranthus viridis (Amaranthus viridis [3])	herbicidal effect, Echinochloa crus-galli (Echinochloa crus-galli [4])	herbicidal effect, Amaranthus viridis (Amaranthus viridis [5])	herbicidal effect, Echinochloa crus-galli (Echinochloa crus-galli [6])	herbicidal effect, Crabgrass (crabgrass [7])	herbicidal effect, Chenopodium album (Chenopodium album [8])	Weed suppression rate (%) Scirpus juncoides (Scirpus juncoides [9])	Weed suppression rate (%) Echinochloa crus-galli (Echinochloa crus-galli [10])	Weed suppression rate (%) Monochoria vaginalis (Monochoria vaginalis [11])	Weed suppression rate (%) Lindemia pyxidaria (Lindernia pyxidaria [12])	Weed suppression rate (%) Scirpus juncoides (Scirpus juncoides [13])	Weed suppression rate (%) Echinochloa crus-galli (Echinochloa crus-galli [14])	Weed suppression rate (%) Monochoria vaginalis (Monochoria vaginalis [15])	Weed suppression rate (%) Lindemia pyxidaria (Lindernia pyxidaria [16])
CC(C)N(C(=O)n1cnn(S(=O)(=O)C2CC2)c1=O)c1ccccc1F [Compound 11-160]	90%	80%	90%	80%	90%	80%	90%	80%	90%	100%	70%	90%	90%	100%	70%	90%
CC(C)N(C(=O)n1cnn(S(=O)(=O)C2CC2)c1=O)c1ccc(F)cc1 [Compound 11-162]	90%	80%	90%	80%	90%	80%	90%	80%	90%	100%	90%	90%	90%	90%	80%	80%
CC(C)N(C(=O)n1cnn(S(=O)(=O)C2CC2)c1=O)c1cccc(F)c1F [Compound 11-189]	100%	90%	100%	100%	60%	100%	100%	80%	90%	100%	90%	100%	100%	100%	100%	80%
CC(C)N(C(=O)n1cnn(S(=O)(=O)C2CC2)c1=O)c1c(F)cccc1F [Compound 11-191]	100%	70%	70%	100%	60%	100%	100%	60%	100%	100%	90%	100%	90%	100%	90%	90%
CC(C)N(C(=O)n1cnn(S(=O)(=O)C2CC2)c1=O)c1ccc(F)c(F)c1F [Compound 11-194]	90%	70%	100%	90%	90%	100%	100%	80%	100%	100%	100%	100%	100%	100%	100%	100%
CC(C)N(C(=O)n1cnn(S(=O)(=O)C2CC2)c1=O)c1c(F)cc(F)cc1F [Compound 11-195]	100%	90%	90%	100%	30%	100%	100%	70%	100%	100%	80%	100%	90%	100%	90%	70%
Cc1ccc(N(C(=O)n2cnn(S(=O)(=O)C3CC3)c2=O)C(C)C)c(F)c1 [Compound 11-212]	100%	60%	60%	100%	90%	80%	90%	80%	90%	100%	80%	90%	90%	90%	80%	80%
CC(C)N(C(=O)n1cnn(S(=O)(=O)C2CC2)c1=O)c1ccc(Cl)cn1 [Compound 11-233]	90%	50%	80%	80%	40%	90%	90%	50%	90%	100%	90%	100%	90%	100%	90%	90%
CC(C)N(C(=O)n1cnn(S(=O)(=O)C2CC2)c1=O)c1ncc(Cl)cc1Cl [Compound 11-234]	90%	80%	90%	80%	90%	80%	90%	80%	90%	90%	80%	90%	90%	90%	90%	90%
CC(C)N(C(=O)n1cnn(S(=O)(=O)C2CC2)c1=O)c1ccc(Cl)nc1Cl [Compound 11-238]	90%	80%	90%	80%	90%	80%	90%	80%	90%	90%	80%	100%	90%	100%	90%	80%
